What was measured:
[1] = tested on: maize varieties (LEXXOR, PACTOL, CLAXXON, GARLAND and SUNDANCE); assay: Greenhouse study: herbicidal damage to maize after pre-emergence PPGO inhibiting herbicides, with or without safener seed treatment; format: in vivo; settings: seed treatment 1 g/kg seed; 8 DAA
Procedure: A greenhouse study is performed to evaluate the safener response of various maize varieties to various PPGO inhibiting herbicides. […] Control seed is also included in the test which contains no safener seed treatment. Herbicide treatments are applied pre-emergence, at the indicated application rates, using a laboratory tracksprayer with a TeeJet 11002VS nozzle. The sprayer is set to deliver an output of 200 L/ha by applying an air pressure of 2 bar. The treated and control seeds are then planted in the treated sandy loam soil contained in 10 cm deep plastic trays and watered from the top of the trays as needed.

Winter wheat = assay: Field test: herbicidal damage to winter wheat after pre-emergence fomesafen, with or without safener A seed treatment; settings: seed treatment 100 g/100 kg seed; fomesafen up to 560 g/ha
Procedure: Winter wheat seed is treated with safener A (1-[4-(N-2-methoxybenzoylsulfamoyl)phenyl]-3-methylurea) at 100 g safener/100 kg of seed. Control seed is also included which contains no safener seed treatment. The wheat seed is then planted in a field as a randomized block design including four replications.

## CNC(=O)Nc1ccc(S(=O)(=O)NC(=O)c2ccccc2OC)cc1 [Safener A, 1-[4-(N-2-methoxybenzoylsulfamoyl)phenyl]-3-methylurea]
[1]
  Safening against sulfentrazone in maize: particularly good safening
  Safening of the various PPGO inhibiting herbicides tested in maize: highly effective safening
Winter wheat
  Safening of fomesafen in winter wheat: highly effective safening
